Reference: PubChem BioAssay (NCI)
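Assay format: 96-well plates, 48-hour exposure. GI50: concentration for 50% inhibition of growth. TGI is the concentration that stops growth completely.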

Tests used:
Assay in all cases: NCI-60 cell line screen, 48 h
UACC-257 melanoma = test system: UACC-257 melanoma
RPMI-8226 leukemia = test system: RPMI-8226 leukemia
UACC-62 melanoma = test system: UACC-62 melanoma
ACHN renal = test system: ACHN renal
SK-MEL-2 melanoma = test system: SK-MEL-2 melanoma
NCI-H226 lung = test system: NCI-H226 lung
CCRF-CEM leukemia = test system: CCRF-CEM leukemia
SNB-75 CNS = test system: SNB-75 CNS
NCI-H23 lung = test system: NCI-H23 lung
SF-539 CNS = test system: SF-539 CNS
NCI-H522 lung = test system: NCI-H522 lung
M14 melanoma = test system: M14 melanoma
XF 498 CNS = test system: XF 498 CNS
A498 renal = test system: A498 renal
SR leukemia = test system: SR leukemia
HL-60(TB) leukemia = test system: HL-60(TB) leukemia
HCC-2998 colon = test system: HCC-2998 colon
PC-3 prostate = test system: PC-3 prostate
DMS 114 small cell lung = test system: DMS 114 small cell lung
BT-549 breast = test system: BT-549 breast
SW-620 colon = test system: SW-620 colon
SK-MEL-28 melanoma = test system: SK-MEL-28 melanoma
SF-268 CNS = test system: SF-268 CNS
OVCAR-5 ovarian = test system: OVCAR-5 ovarian
NCI/ADR-RES ovarian = test system: NCI/ADR-RES ovarian
U251 CNS = test system: U251 CNS
LOX IMVI melanoma = test system: LOX IMVI melanoma
SN12C renal = test system: SN12C renal
LXFL 529 NSCLC = test system: LXFL 529 NSCLC
HS 578T breast = test system: HS 578T breast
EKVX NSCLC = test system: EKVX NSCLC
SK-OV-3 ovarian = test system: SK-OV-3 ovarian
RXF 393 renal = test system: RXF 393 renal
A549 NSCLC = test system: A549 NSCLC
HOP-62 NSCLC = test system: HOP-62 NSCLC
SNB-19 CNS = test system: SNB-19 CNS
T-47D breast = test system: T-47D breast
MALME-3M melanoma = test system: MALME-3M melanoma
MCF7 breast = test system: MCF7 breast
UO-31 renal = test system: UO-31 renal
HOP-92 NSCLC = test system: HOP-92 NSCLC
KM12 colon = test system: KM12 colon
TK-10 renal = test system: TK-10 renal
KM20L2 colon = test system: KM20L2 colon
DLD-1 colon = test system: DLD-1 colon
OVCAR-4 ovarian = test system: OVCAR-4 ovarian
HOP-18 NSCLC = test system: HOP-18 NSCLC
CAKI-1 renal = test system: CAKI-1 renal
DMS 273 small cell lung = test system: DMS 273 small cell lung
OVCAR-3 ovarian = test system: OVCAR-3 ovarian
MOLT-4 leukemia = test system: MOLT-4 leukemia
OVCAR-8 ovarian = test system: OVCAR-8 ovarian
K-562 leukemia = test system: K-562 leukemia
NCI-H460 lung = test system: NCI-H460 lung
COLO 205 colon = test system: COLO 205 colon
786-0 renal = test system: 786-0 renal
MDA-MB-435 = test system: MDA-MB-435
SF-295 CNS = test system: SF-295 CNS
M19-MEL melanoma = test system: M19-MEL melanoma
HT29 colon = test system: HT29 colon
MDA-MB-231 breast = test system: MDA-MB-231 breast
SK-MEL-5 melanoma = test system: SK-MEL-5 melanoma
HCT-116 colon = test system: HCT-116 colon
IGROV1 ovarian = test system: IGROV1 ovarian
HCT-15 colon = test system: HCT-15 colon
RXF-631 renal = test system: RXF-631 renal
DU-145 prostate = test system: DU-145 prostate

O=C1c2ccccc2C(=O)c2sc(Nc3cccc(Cl)c3)nc21
TGI (UACC-257 melanoma): 2.99 µM | TGI (RPMI-8226 leukemia): 4.07 µM | TGI (UACC-62 melanoma): 3.25 µM | TGI (ACHN renal): 3.03 µM | TGI (SK-MEL-2 melanoma): 3.79 µM | TGI (NCI-H226 lung): 6.25 µM | TGI (CCRF-CEM leukemia): 3.89 µM | TGI (SNB-75 CNS): 3.67 µM | TGI (NCI-H23 lung): 3.59 µM | TGI (SF-539 CNS): 3.44 µM | TGI (NCI-H522 lung): 3.09 µM | TGI (M14 melanoma): 3.24 µM | TGI (XF 498 CNS): 3.18 µM | TGI (A498 renal): 12.6 µM | TGI (SR leukemia): 5.47 µM | TGI (HL-60(TB) leukemia): 0.444 µM | TGI (HCC-2998 colon): 5.3 µM | GI50 (PC-3 prostate): 1.89 µM | TGI (PC-3 prostate): 6.75 µM | TGI (DMS 114 small cell lung): 2.97 µM | GI50 (BT-549 breast): 1.67 µM | TGI (BT-549 breast): 3.04 µM | TGI (SW-620 colon): 2.26 µM | TGI (SK-MEL-28 melanoma): 3.34 µM | TGI (SF-268 CNS): 4.69 µM | TGI (OVCAR-5 ovarian): 4.78 µM | GI50 (NCI/ADR-RES ovarian): 2.01 µM | TGI (NCI/ADR-RES ovarian): 4.78 µM | TGI (U251 CNS): 2.97 µM | TGI (LOX IMVI melanoma): 2.28 µM | TGI (SN12C renal): 2.84 µM | TGI (LXFL 529 NSCLC): 2.86 µM | GI50 (HS 578T breast): 2.82 µM | TGI (HS 578T breast): 9.15 µM | TGI (EKVX NSCLC): 4.89 µM | TGI (SK-OV-3 ovarian): 10.9 µM | TGI (RXF 393 renal): 3.19 µM | TGI (A549 NSCLC): 4.6 µM | TGI (HOP-62 NSCLC): 3.19 µM | TGI (SNB-19 CNS): 4.36 µM | GI50 (T-47D breast): 1.84 µM | TGI (T-47D breast): 5.98 µM | TGI (MALME-3M melanoma): 2.69 µM | GI50 (MCF7 breast): 0.596 µM | TGI (MCF7 breast): 2.46 µM | TGI (UO-31 renal): 4 µM | GI50 (HOP-92 NSCLC): 1.82 µM | TGI (HOP-92 NSCLC): 9.1 µM | TGI (KM12 colon): 4.1 µM | TGI (TK-10 renal): 5.39 µM | TGI (KM20L2 colon): 20.2 µM | TGI (DLD-1 colon): 3.95 µM | TGI (OVCAR-4 ovarian): 2.72 µM | TGI (HOP-18 NSCLC): 3.48 µM | TGI (CAKI-1 renal): 4.97 µM | TGI (DMS 273 small cell lung): 3.59 µM | TGI (OVCAR-3 ovarian): 1.8 µM | TGI (MOLT-4 leukemia): 3.05 µM | TGI (OVCAR-8 ovarian): 3.27 µM | TGI (K-562 leukemia): 4.36 µM | TGI (NCI-H460 lung): 4.25 µM | TGI (COLO 205 colon): 7.68 µM | TGI (786-0 renal): 3.74 µM | GI50 (MDA-MB-435): 0.258 µM | TGI (MDA-MB-435): 0.711 µM | TGI (SF-295 CNS): 3.09 µM | TGI (M19-MEL melanoma): 0.89 µM | TGI (HT29 colon): 8.36 µM | GI50 (MDA-MB-231 breast): 0.292 µM | TGI (MDA-MB-231 breast): 3.37 µM | TGI (SK-MEL-5 melanoma): 2.99 µM | TGI (HCT-116 colon): 2.54 µM | TGI (IGROV1 ovarian): 5.9 µM | TGI (HCT-15 colon): 3.69 µM

CCOC(=O)c1ncn2c1[nH]c(=S)c1ccccc12
TGI (UACC-257 melanoma): > 100 µM | TGI (RPMI-8226 leukemia): > 100 µM | TGI (UACC-62 melanoma): > 100 µM | TGI (ACHN renal): > 100 µM | TGI (SK-MEL-2 melanoma): > 100 µM | TGI (NCI-H226 lung): > 100 µM | TGI (CCRF-CEM leukemia): > 100 µM | TGI (SNB-75 CNS): > 100 µM | TGI (NCI-H23 lung): > 100 µM | TGI (SF-539 CNS): > 100 µM | TGI (NCI-H522 lung): > 100 µM | TGI (M14 melanoma): > 100 µM | TGI (A498 renal): > 100 µM | TGI (HL-60(TB) leukemia): > 100 µM | TGI (HCC-2998 colon): > 100 µM | TGI (DMS 114 small cell lung): > 100 µM | TGI (SW-620 colon): 62 µM | TGI (SK-MEL-28 melanoma): > 100 µM | TGI (SF-268 CNS): > 100 µM | TGI (OVCAR-5 ovarian): > 100 µM | TGI (U251 CNS): > 100 µM | TGI (LOX IMVI melanoma): > 100 µM | TGI (SN12C renal): > 100 µM | TGI (LXFL 529 NSCLC): > 100 µM | TGI (EKVX NSCLC): > 100 µM | TGI (SK-OV-3 ovarian): > 100 µM | TGI (RXF 393 renal): > 100 µM | TGI (A549 NSCLC): > 100 µM | TGI (HOP-62 NSCLC): > 100 µM | TGI (SNB-19 CNS): > 100 µM | TGI (MALME-3M melanoma): > 100 µM | TGI (UO-31 renal): > 100 µM | TGI (RXF-631 renal): > 100 µM | TGI (HOP-92 NSCLC): > 100 µM | TGI (KM12 colon): > 100 µM | TGI (TK-10 renal): > 100 µM | TGI (KM20L2 colon): > 100 µM | TGI (DLD-1 colon): > 100 µM | TGI (OVCAR-4 ovarian): > 100 µM | TGI (HOP-18 NSCLC): > 100 µM | TGI (CAKI-1 renal): > 100 µM | TGI (DMS 273 small cell lung): > 100 µM | TGI (OVCAR-3 ovarian): > 100 µM | TGI (MOLT-4 leukemia): > 100 µM | TGI (OVCAR-8 ovarian): > 100 µM | TGI (K-562 leukemia): > 100 µM | TGI (NCI-H460 lung): > 100 µM | TGI (COLO 205 colon): > 100 µM | TGI (786-0 renal): > 100 µM | TGI (SF-295 CNS): > 100 µM | TGI (M19-MEL melanoma): > 100 µM | TGI (HT29 colon): > 100 µM | TGI (SK-MEL-5 melanoma): > 100 µM | TGI (HCT-116 colon): > 100 µM | TGI (IGROV1 ovarian): > 100 µM | TGI (HCT-15 colon): > 100 µM

NS(=O)(=O)c1ccccc1C(=O)N/N=C(\c1nc2ccc([N+](=O)[O-])cc2[nH]c1=O)C(O)c1ccc([N+](=O)[O-])cc1 (stereo not given)
TGI (UACC-257 melanoma): > 100 µM | TGI (RPMI-8226 leukemia): > 100 µM | TGI (UACC-62 melanoma): > 100 µM | TGI (ACHN renal): > 100 µM | TGI (DU-145 prostate): > 100 µM | TGI (SK-MEL-2 melanoma): > 100 µM | TGI (NCI-H226 lung): > 100 µM | TGI (CCRF-CEM leukemia): > 100 µM | TGI (SNB-75 CNS): > 100 µM | TGI (NCI-H23 lung): > 100 µM | TGI (SF-539 CNS): > 100 µM | TGI (NCI-H522 lung): 59.2 µM | TGI (M14 melanoma): > 100 µM | TGI (XF 498 CNS): > 100 µM | TGI (A498 renal): > 100 µM | TGI (SR leukemia): > 100 µM | TGI (HL-60(TB) leukemia): > 100 µM | TGI (HCC-2998 colon): > 100 µM | TGI (SW-620 colon): > 100 µM | TGI (SK-MEL-28 melanoma): > 100 µM | TGI (SF-268 CNS): > 100 µM | TGI (OVCAR-5 ovarian): > 100 µM | TGI (U251 CNS): > 100 µM | TGI (LOX IMVI melanoma): > 100 µM | TGI (SN12C renal): > 100 µM | TGI (LXFL 529 NSCLC): > 100 µM | TGI (EKVX NSCLC): > 100 µM | TGI (SK-OV-3 ovarian): > 100 µM | TGI (RXF 393 renal): > 100 µM | TGI (A549 NSCLC): > 100 µM | TGI (SNB-19 CNS): > 100 µM | TGI (MALME-3M melanoma): > 100 µM | TGI (UO-31 renal): > 100 µM | TGI (HOP-92 NSCLC): > 100 µM | TGI (KM12 colon): > 100 µM | TGI (TK-10 renal): > 100 µM | TGI (KM20L2 colon): > 100 µM | TGI (DLD-1 colon): > 100 µM | TGI (OVCAR-4 ovarian): > 100 µM | TGI (HOP-18 NSCLC): > 100 µM | TGI (CAKI-1 renal): > 100 µM | TGI (OVCAR-3 ovarian): > 100 µM | TGI (MOLT-4 leukemia): > 100 µM | TGI (OVCAR-8 ovarian): > 100 µM | TGI (K-562 leukemia): > 100 µM | TGI (NCI-H460 lung): > 100 µM | TGI (COLO 205 colon): > 100 µM | TGI (786-0 renal): > 100 µM | TGI (SF-295 CNS): > 100 µM | TGI (M19-MEL melanoma): > 100 µM | TGI (HT29 colon): > 100 µM | TGI (SK-MEL-5 melanoma): > 100 µM | TGI (HCT-116 colon): > 100 µM | TGI (IGROV1 ovarian): > 100 µM | TGI (HCT-15 colon): > 100 µM
